target: Erk1 (Homo sapiens (Human), UniProt P27361); test: Protein Mass Modification Assay (intact protein MALDI); format: binding
Summary of the method: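 Human Erk1 was incubated 60 min at room temperature with a 10-fold molar excess of compound, then analysed as intact protein by MALDI with sinapinic acid matrix. The centroid mass shift versus untreated protein was divided by compound molecular weight to give percent modified protein.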

Chain of Erk1 (P27361 whole entry, looked up): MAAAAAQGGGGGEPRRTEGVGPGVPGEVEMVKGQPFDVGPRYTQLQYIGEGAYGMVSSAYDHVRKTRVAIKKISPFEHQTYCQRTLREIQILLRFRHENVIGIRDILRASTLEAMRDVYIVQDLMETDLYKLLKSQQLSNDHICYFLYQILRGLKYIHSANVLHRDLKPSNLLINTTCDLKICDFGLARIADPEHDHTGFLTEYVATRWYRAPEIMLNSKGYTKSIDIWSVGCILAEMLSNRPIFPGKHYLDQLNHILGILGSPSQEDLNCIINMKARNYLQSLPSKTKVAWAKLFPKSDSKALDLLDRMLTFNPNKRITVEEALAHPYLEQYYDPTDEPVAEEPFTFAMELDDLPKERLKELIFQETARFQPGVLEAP

ERK1 Mass Mod (%) | Compound
E (provided a mass modification of ≧70%) | C=CC(=O)Nc1cc(F)ccc1Nc1nc(Nc2ccc(F)cc2OC)ncc1Cl [Compound I-213, N-(2-((5-chloro-2-((4-fluoro-2-methoxyphenyl)amino)pyrimidin-4-yl)amino)-5-fluorophenyl)acrylamide]
E (provided a mass modification of ≧70%) | C=CC(=O)Nc1ccccc1Nc1nc(Nc2cc(C(N)=O)ccc2C)ncc1C [Compound I-224, 3-(4-(2-acrylamidophenylamino)-5-methylpyrimidin-2-ylamino)-4-methyl benzamide]
E (provided a mass modification of ≧70%) | C#CC(=O)NCCCOc1cc(C)c(Nc2ncc(Cl)c(Nc3ccccc3NC(=O)C=C)n2)cc1C(N)=O [Compound I-227, 5-((4-((2-acrylamidophenyl)amino)-5-chloropyrimidin-2-yl)amino)-4-methyl-2-(3-propiolamidopropoxy)benzamide]
E (provided a mass modification of ≧70%) | C=CC(=O)Nc1cc(C)ccc1Nc1nc(Nc2ccnc(Cl)c2)ncc1Cl [Compound I-230, N-(2-((5-chloro-2-((2-chloropyridin-4-yl)amino)pyrimidin-4-yl)amino)-5-methylphenyl)acrylamide]
E (provided a mass modification of ≧70%) | C=CC(=O)Nc1ccccc1Nc1nc(Nc2cc(C(=O)NC)c(F)cc2C)ncc1Cl [Compound I-231, 5-((4-((2-acrylamidophenyl)amino)-5-chloropyrimidin-2-yl)amino)-2-fluoro-N,4-dimethylbenzamide]
E (provided a mass modification of ≧70%) | C=CC(=O)Nc1ccccc1Nc1nc(Nc2cc(C(=O)NCCO)c(F)cc2C)ncc1Cl [Compound I-232, 5-((4-((2-acrylamidophenyl)amino)-5-chloropyrimidin-2-yl)amino)-2-fluoro-N-(2-hydroxyethyl)-4-methylbenzamide]
E (provided a mass modification of ≧70%) | C=CC(=O)Nc1cc(C)ccc1Nc1nc(Nc2cc(C(=O)NC)c(F)cc2C)ncc1Cl [Compound I-233, 5-((4-((2-acrylamido-4-methylphenyl)amino)-5-chloropyrimidin-2-yl)amino)-2-fluoro-N,4-dimethylbenzamide]
E (provided a mass modification of ≧70%) | C=CC(=O)Nc1cc(C)ccc1Nc1nc(Nc2ccnc(OC)c2)ncc1Cl [Compound I-235, N-(2-((5-chloro-2-((2-methoxypyridin-4-yl)amino)pyrimidin-4-yl)amino)-5-methylphenyl)acrylamide]
E (provided a mass modification of ≧70%) | C=CC(=O)Nc1cc(C)ccc1Nc1nc(Nc2ccncc2C)ncc1Cl [Compound I-236, N-(2-((5-chloro-2-((3-methylpyridin-4-yl)amino)pyrimidin-4-yl)amino)-5-methylphenyl)acrylamide]
E (provided a mass modification of ≧70%) | C=CC(=O)Nc1cc(C)ccc1Nc1nc(Nc2cc(C(N)=O)ccn2)ncc1Cl [Compound I-238, 2-((4-((2-acrylamido-4-methylphenyl)amino)-5-chloropyrimidin-2-yl)amino)isonicotinamide]
E (provided a mass modification of ≧70%) | C=CC(=O)Nc1ccccc1Nc1nc(Nc2cc(Cl)nc(OC)c2)ncc1Cl [Compound I-246, N-(2-((5-chloro-2-((2-chloro-6-methoxypyridin-4-yl)amino)pyrimidin-4-yl)amino)phenyl)acrylamide]
G (proived a mass modification ≦30%) | C=CC(=O)Nc1ccccc1Nc1nc(Nc2ccc(N3CCOCC3)cc2OC)ncc1C(=O)NC [Compound I-250, 4-(2-acrylamidophenylamino)-2-(2-methoxy-4-morpholinophenylamino)-N-methylpyrimidine-5-carboxamide]
G (proived a mass modification ≦30%) | C=CC(=O)Nc1ccccc1Nc1nc(Nc2ccc(N3CCOCC3)cc2OC)ncc1C(=O)NCC [Compound I-251, 4-((2-acrylamidophenyl)amino)-N-ethyl-2-((2-methoxy-4-morpholinophenyl)amino)pyrimidine-5-carboxamide]
E (provided a mass modification of ≧70%) | C=CC(=O)Nc1ccccc1Nc1nc(Nc2ccc(OCCCN3CCOCC3)cc2OC)ncc1C(N)=O [Compound I-254, 4-((2-acrylamidophenyl)amino)-2-((2-methoxy-4-(3-morpholinopropoxy)phenyl)amino)pyrimidine-5-carboxamide]

Compound | ERK1 Mass Mod (%)
C=CC(=O)Nc1ccccc1Nc1nc(Nc2cc(C(N)=O)ccc2C(F)(F)F)ncc1Cl [Compound I-220, 3-((4-((2-acrylamidophenyl)amino)-5-chloropyrimidin-2-yl)amino)-4-(trifluoromethyl)benzamide] | E (key: E: provided a mass modification of ≧70%; F: provided a mass modification of 31-69%; G: proived a mass modification ≦30%)
C=CC(=O)Nc1ccccc1Nc1nc(Nc2cc(C(=O)O)ccc2C)ncc1Cl [Compound I-225, 3-((4-((2-acrylamidophenyl)amino)-5-chloropyrimidin-2-yl)amino)-4-methylbenzoic acid] | F (provided a mass modification of 31-69%)
C=CC(=O)Nc1cc(C)ccc1Nc1nc(Nc2cc(C(=O)NCCO)c(F)cc2C)ncc1Cl [Compound I-234, 5-((4-((2-acrylamido-4-methylphenyl)amino)-5-chloropyrimidin-2-yl)amino)-2-fluoro-N-(2-hydroxyethyl)-4-methylbenzamide] | F (provided a mass modification of 31-69%)
C=CC(=O)Nc1cc(C)ccc1Nc1nc(Nc2cc(C(C)=O)ccc2C)ncc1Cl [Compound I-239, N-(2-((2-((5-acetyl-2-methylphenyl)amino)-5-chloropyrimidin-4-yl)amino)-5-methylphenyl)acrylamide] | E (key: E: provided a mass modification of ≧70%; F: provided a mass modification of 31-69%; G: proived a mass modification ≦30%)
C=CC(=O)Nc1cc(OC)ccc1Nc1nc(Nc2cc(Cl)nc(OC)c2)ncc1Cl [Compound I-245, N-(2-((5-chloro-2-((2-chloro-6-methoxypyridin-4-yl)amino)pyrimidin-4-yl)amino)-5-methoxyphenyl)acrylamide] | F (provided a mass modification of 31-69%)
C=CC(=O)Nc1ccccc1Nc1nc(Nc2ccc(N3CCOCC3)cc2OC)ncc1C(N)=O [Compound I-249, 4-((2-acrylamidophenyl)amino)-2-((2-methoxy-4-morpholinophenyl)amino)pyrimidine-5-carboxamide] | F (provided a mass modification of 31-69%)
C=CC(=O)Nc1ccccc1Nc1nc(Nc2ccc3c(c2OC)CCCC(=O)N3CCN2CCOCC2)ncc1C(N)=O [Compound I-252, 4-((2-acrylamidophenyl)amino)-2-((6-methoxy-1-(2-morpholinoethyl)-2-oxo-2,3,4,5-tetrahydro-1H-benzo[b]azepin-7-yl)amino)pyrimidine-5-carboxamide] | F (provided a mass modification of 31-69%)
C=CC(=O)Nc1ccccc1Nc1nc(Nc2ccc3c(c2OC)CCCC(=O)N3CCCN2CCOCC2)ncc1C(N)=O [Compound I-253, 4-((2-acrylamidophenyl)amino)-2-((6-methoxy-1-(3-morpholinopropyl)-2-oxo-2,3,4,5-tetrahydro-1H-benzo[b]azepin-7-yl)amino)pyrimidine-5-carboxamide] | F (provided a mass modification of 31-69%)

— patent US9796700B2 (Celgene CAR LLC, priority 2013, dated 2017)
